From the CheMixHub drug solubility set

Assay: xn = mol fraction of the nth substance listed, in the solute-free solvent

O=[N+]([O-])c1cc[nH]n1 + CC(C)=O + O
solubility (g/100 g solution)
Settings	283.15 K	288.15 K	293.15 K	298.15 K	303.15 K	308.15 K	313.15 K	318.15 K	323.15 K
x2 = 0.03333	0.251	0.321	0.373	0.471	0.552	0.72	0.876	1.07	1.32
x2 = 0.07199	0.297	0.351	0.41	0.49	0.576	0.71	0.865	1.05	1.29
x2 = 0.1174	0.313	0.362	0.422	0.501	0.594	0.708	0.855	1.05	1.29
x2 = 0.1714	0.322	0.371	0.43	0.507	0.597	0.705	0.853	1.05	1.24
x2 = 0.2368	0.324	0.369	0.426	0.491	0.573	0.683	0.813	0.984	1.17
x2 = 0.3176	0.319	0.37	0.422	0.487	0.564	0.662	0.79	0.932	1.11
x2 = 0.42	0.324	0.366	0.414	0.476	0.543	0.637	0.749	0.871	0.999
x2 = 0.5538	0.306	0.354	0.398	0.457	0.527	0.614	0.722	0.873	1.02
x2 = 0.7363	0.299	0.349	0.397	0.461	0.515	0.576	0.678	0.794	0.916
